According to US10918653B2, “Bovine milk oligosaccharides” (The Regents of the University of California, priority 2010, dated 2021):

Assays:
[1] = test system: E. coli O157:H7; format: cell-based; conditions: sugar in MacConkey medium; BMO 2 g per 100 ml; strain 3
[2] = test system: Listeria monocytognes; assay: Growth on MacConkey agar plates (lactose or BMO); format: cell-based, Listeria monocytogenes; conditions: sugar in MacConkey medium; BMO 2 g per 100 ml; strain 8
Description: (§1) FIGS. 3A-3B illustrate growth of select pathogens on BMO. […] The Lac operon permease can transport BMO trimers and tetramers. […] BMOs were suspended at 1 gr/10 mL of sterile water, 10 N NaOH was added until the pH was 7. The BMO solution was used in a MacConkey medium to generate agar plates.

[3] = test system: Salmonella typhimurium; format: cell-based, Salmonella enterica seovar Typhimurium; conditions: sugar in MacConkey medium; BMO 2 g per 100 ml; strains 4, 6, 7
[4] = test system: Salmonella typhimurium+lac operon; assay: Growth on MacConkey agar plates (lactose or BMO); format: cell-based; conditions: sugar in MacConkey medium; BMO 2 g per 100 ml; strain 5
Description: as §1

[5] = test system: Yersinia enterocolitica; assay: Growth on MacConkey agar plates (lactose or BMO); format: cell-based; conditions: sugar in MacConkey medium; BMO 2 g per 100 ml; strain 9
Description: as §1

[6] = test system: E. coli K12 (DH5alpha, lac minus); assay: Growth on MacConkey agar plates (lactose or BMO); format: cell-based; conditions: sugar in MacConkey medium; BMO 2 g per 100 ml; strain 2
Description: as §1

[7] = test system: E. coli K12; assay: Growth on MacConkey agar plates (lactose or BMO); format: cell-based; conditions: sugar in MacConkey medium; BMO 2 g per 100 ml; strain 1
Description: as §1

[8] = test system: Vibrio cholerae; format: cell-based; conditions: sugar in MacConkey medium; BMO 2 g per 100 ml; strains 10, 11

## OC[C@H]1O[C@@H](O[C@H]2[C@H](O)[C@@H](O)C(O)O[C@@H]2CO)[C@H](O)[C@@H](O)[C@H]1O (some centres unmarked) [Lactose]
[1]
  growth on MacConkey agar plate (red strikes): growth observed
[2]
  growth on MacConkey agar plate: negative
[3]
  growth on MacConkey agar plate: negative
[4]
  growth on MacConkey agar plate (red strikes): growth observed
[5]
  growth on MacConkey agar plate: negative
[6]
  growth on MacConkey agar plate: negative
[7]
  growth on MacConkey agar plate (red strikes): growth observed
[8]
  growth on MacConkey agar plate: negative
